Measured values from patent US7138361B2, “Herbicidal heterocycles” (E. I. du Pont de Nemours and Company, priority 2000, dated 2006).

How the values were obtained:
Format in all cases: in vivo
corn (Zea mays) [1] = assay: Test B postemergence
Procedure, shortened: (§1)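 Greenhouse test: chemicals are formulated in a surfactant-containing non-phytotoxic solvent and applied either preemergence to planted seeds or postemergence to plants 2 to 18 cm tall. Response is rated visually versus controls after 13 to 15 days, 0 meaning no effect and 100 complete control.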

[2] = tested on: giant foxtail (Setaria faberii); assay: Test B postemergence
Procedure, shortened: as §1

[3] = tested on: wheat (Triticum aestivum); assay: Test B postemergence
Procedure, shortened: as §1

[4] = tested on: crabgrass (Digitaria sanguinalis); assay: Test B postemergence
Procedure, shortened: as §1

[5] = tested on: morning glory (Ipomoea hederacea); assay: Test B postemergence
Procedure, shortened: as §1

[6] = tested on: velvetleaf (Abutilon theophrasti); assay: Test B postemergence
Procedure, shortened: as §1

[7] = tested on: pigweed (Amaranthus retroflexus); assay: Test B postemergence
Procedure, shortened: as §1

wild oat (Avena fatua) = assay: Test B postemergence
Procedure, shortened: as §1

[8] = tested on: Surinam grass (Brachiaria decumbens); assay: Test B postemergence
Procedure, shortened: as §1

[9] = tested on: barnyardgrass (Echinochloa crus-galli); assay: Test B postemergence
Procedure, shortened: as §1

[10] = tested on: cocklebur (Xanthium strumarium); assay: Test B postemergence
Procedure, shortened: as §1

[11] = tested on: lambsquarters (Chenopodium album); assay: Test B postemergence
Procedure, shortened: as §1

[12] = tested on: blackgrass (Alopecurus myosuroides); assay: Test B postemergence
Procedure, shortened: as §1

corn (Zea mays) [13] = assay: Test B preemergence
Procedure, shortened: as §1

[14] = tested on: giant foxtail (Setaria faberii); assay: Test B preemergence
Procedure, shortened: as §1

[15] = tested on: crabgrass (Digitaria sanguinalis); assay: Test B preemergence
Procedure, shortened: as §1

[16] = tested on: morning glory (Ipomoea hederacea); assay: Test B preemergence
Procedure, shortened: as §1

[17] = tested on: velvetleaf (Abutilon theophrasti); assay: Test B preemergence
Procedure, shortened: as §1

[18] = tested on: pigweed (Amaranthus retroflexus); assay: Test B preemergence
Procedure, shortened: as §1

[19] = tested on: Surinam grass (Brachiaria decumbens); assay: Test B preemergence
Procedure, shortened: as §1

rice (Oryza saliva) = assay: Test B preemergence
Procedure, shortened: as §1

[20] = tested on: barnyardgrass (Echinochloa crus-galli); assay: Test B preemergence
Procedure, shortened: as §1

[21] = tested on: cocklebur (Xanthium strumarium); assay: Test B preemergence
Procedure, shortened: as §1

[22] = tested on: lambsquarters (Chenopodium album); assay: Test B preemergence
Procedure, shortened: as §1

Sunflower = assay: Test C preemergence; conditions: Rate 250 g/ha, scale 0 to 100, 0 no effect, 100 complete control
[23] = Rate 125 g/ha, scale 0 (no effect) to 100 (complete control), 13 to 15 days
[24] = Rate 500 g/ha, scale 0 to 100, 0 is no effect, 100 is complete control, 13 to 15 days
[25] = Preemergence, Rate 500 g/ha, scale 0 to 100, 0 no effect, 100 complete control
[26] = preemergence, Rate 125 g/ha, scale of 0 to 100 where 0 is no effect and 100 is complete control, 13 to 15 days
[27] = Rate 62 g/ha, scale 0 to 100, 0 no effect, 100 complete control
[28] = Rate 250 g/ha, scale 0 (no effect) to 100 (complete control), 13 to 15 days
[29] = preemergence, Rate 62 g/ha, scale of 0 to 100 where 0 is no effect and 100 is complete control, 13 to 15 days
[30] = preemergence, Rate 250 g/ha, scale 0 to 100, 0 no effect, 100 complete control

CCCC(C)c1ccn(C2SCN(c3cccc(OC(F)(F)F)c3)C2=O)n1 (stereo not drawn) [Compound 90]
0: Plant response rating, Corn (corn (Zea mays) [1]; [23]) | Plant response rating, Foxtail, Giant [2, 23] | Plant response rating, Wheat [3, 24] | Plant response rating, Surinam grass [8, 23] | Plant response rating, Blackgrass [12, 23] | Plant response rating, Blackgrass [12, 24] | Plant response rating, Corn (corn (Zea mays) [13]; [26]) | Plant response rating, Morningglory [16, 25] | Plant response rating, Morningglory [16, 26] | Plant response rating, Velvetleaf [17, 25] | Plant response rating, Velvetleaf [17, 26] | Plant response rating, Rice (rice (Oryza saliva); [25]) | Plant response rating, Rice (rice (Oryza saliva); [26]) | Plant response rating, Cocklebur [21, 25] | Plant response rating, Cocklebur [21, 26]
20: Plant response rating, Crabgrass [4, 23] | Plant response rating, Wild Oat (wild oat (Avena fatua); [24]) | Plant response rating, Barnyardgrass [9, 23] | Plant response rating, Cocklebur [10, 23] | Plant response rating, Corn (corn (Zea mays) [13]; [25]) | Plant response rating, Surinam grass [19, 26]
10: Plant response rating, Corn (corn (Zea mays) [1]; [24]) | Plant response rating, Sunflower (Sunflower)
100: Plant response rating, Lambsquarters [11, 24] | Plant response rating, Foxtail, Giant [14, 25] | Plant response rating, Crabgrass [15, 25] | Plant response rating, Pigweed [18, 25] | Plant response rating, Barnyardgrass [20, 25] | Plant response rating, Lambsquarters [22, 25] | Plant response rating, Lambsquarters [22, 26]
50: Plant response rating, Crabgrass [4, 24] | Plant response rating, Barnyardgrass [20, 26]
70: Plant response rating, Morningglory [5, 24]
90: Plant response rating, Pigweed [7, 24] | Plant response rating, Crabgrass [15, 26]
40: Plant response rating, Foxtail, Giant [2, 24] | Plant response rating, Velvetleaf [6, 24]
80: Plant response rating, Barnyardgrass [9, 24] | Plant response rating, Foxtail, Giant [14, 26] | Plant response rating, Pigweed [18, 26] | Plant response rating, Surinam grass [19, 25]
60: Plant response rating, Cocklebur [10, 24]
30: Plant response rating, Surinam grass [8, 24]

CCOc1cc(N2CCC(n3ccc(C(C)(C)C)n3)C2=O)ccc1C (stereo not drawn) [Compound 106]
40: Plant response rating, Foxtail, Giant [14, 26]
80: Plant response rating, Velvetleaf [6, 24]
100: Plant response rating, Morningglory [5, 24] | Plant response rating, Lambsquarters [11, 24] | Plant response rating, Crabgrass [15, 25] | Plant response rating, Crabgrass [15, 26] | Plant response rating, Morningglory [16, 25] | Plant response rating, Morningglory [16, 26] | Plant response rating, Velvetleaf [17, 25] | Plant response rating, Pigweed [18, 25] | Plant response rating, Pigweed [18, 26] | Plant response rating, Surinam grass [19, 25] | Plant response rating, Surinam grass [19, 26] | Plant response rating, Rice (rice (Oryza saliva); [25]) | Plant response rating, Barnyardgrass [20, 25] | Plant response rating, Cocklebur [21, 25] | Plant response rating, Lambsquarters [22, 25] | Plant response rating, Lambsquarters [22, 26]
30: Plant response rating, Corn (corn (Zea mays) [13]; [25]) | Plant response rating, Corn (corn (Zea mays) [13]; [26]) | Plant response rating, Cocklebur [21, 26]
0: Plant response rating, Corn (corn (Zea mays) [1]; [23]) | Plant response rating, Corn (corn (Zea mays) [1]; [24]) | Plant response rating, Foxtail, Giant [2, 23] | Plant response rating, Foxtail, Giant [2, 24] | Plant response rating, Wheat [3, 24] | Plant response rating, Crabgrass [4, 23] | Plant response rating, Crabgrass [4, 24] | Plant response rating, Wild Oat (wild oat (Avena fatua); [24]) | Plant response rating, Surinam grass [8, 23] | Plant response rating, Surinam grass [8, 24] | Plant response rating, Barnyardgrass [9, 23] | Plant response rating, Barnyardgrass [9, 24] | Plant response rating, Blackgrass [12, 23] | Plant response rating, Blackgrass [12, 24] | Plant response rating, Velvetleaf [17, 26] | Plant response rating, Rice (rice (Oryza saliva); [26])
90: Plant response rating, Pigweed [7, 24] | Plant response rating, Cocklebur [10, 23] | Plant response rating, Cocklebur [10, 24] | Plant response rating, Barnyardgrass [20, 26] | Plant response rating, Sunflower (Sunflower)
60: Plant response rating, Foxtail, Giant [14, 25]

Cc1ccc(N2CCC(n3ccc(C(C)(C)C)n3)C2=O)cc1OCCCl (stereo not drawn) [Compound 109]
100: Plant response rating, Morningglory [5, 28] | Plant response rating, Morningglory [5, 24] | Plant response rating, Foxtail, Giant [14, 30] | Plant response rating, Crabgrass [15, 25] | Plant response rating, Crabgrass [15, 29] | Plant response rating, Crabgrass [15, 26] | Plant response rating, Crabgrass [15, 30] | Plant response rating, Pigweed [18, 25] | Plant response rating, Pigweed [18, 29] | Plant response rating, Pigweed [18, 26] | Plant response rating, Pigweed [18, 30] | Plant response rating, Surinam grass [19, 25] | Plant response rating, Barnyardgrass [20, 25] | Plant response rating, Lambsquarters [22, 25] | Plant response rating, Lambsquarters [22, 29] | Plant response rating, Lambsquarters [22, 26] | Plant response rating, Lambsquarters [22, 30]
0: Plant response rating, Corn (corn (Zea mays) [1]; [27]) | Plant response rating, Corn (corn (Zea mays) [1]; [23]) | Plant response rating, Corn (corn (Zea mays) [1]; [28]) | Plant response rating, Corn (corn (Zea mays) [1]; [24]) | Plant response rating, Foxtail, Giant [2, 27] | Plant response rating, Foxtail, Giant [2, 23] | Plant response rating, Foxtail, Giant [2, 24] | Plant response rating, Wheat [3, 27] | Plant response rating, Wheat [3, 28] | Plant response rating, Wheat [3, 24] | Plant response rating, Crabgrass [4, 27] | Plant response rating, Crabgrass [4, 23] | Plant response rating, Crabgrass [4, 28] | Plant response rating, Crabgrass [4, 24] | Plant response rating, Velvetleaf [6, 27] | Plant response rating, Wild Oat (wild oat (Avena fatua); [27]) | Plant response rating, Wild Oat (wild oat (Avena fatua); [28]) | Plant response rating, Wild Oat (wild oat (Avena fatua); [24]) | Plant response rating, Surinam grass [8, 27] | Plant response rating, Surinam grass [8, 23] | Plant response rating, Surinam grass [8, 24] | Plant response rating, Barnyardgrass [9, 27] | Plant response rating, Barnyardgrass [9, 23] | Plant response rating, Barnyardgrass [9, 28] | Plant response rating, Barnyardgrass [9, 24] | Plant response rating, Blackgrass [12, 27] | Plant response rating, Blackgrass [12, 23] | Plant response rating, Blackgrass [12, 28] | Plant response rating, Blackgrass [12, 24] | Plant response rating, Corn (corn (Zea mays) [13]; [25]) | Plant response rating, Corn (corn (Zea mays) [13]; [29]) | Plant response rating, Corn (corn (Zea mays) [13]; [26]) | Plant response rating, Corn (corn (Zea mays) [13]; [30]) | Plant response rating, Foxtail, Giant [14, 26] | Plant response rating, Morningglory [16, 25] | Plant response rating, Morningglory [16, 29] | Plant response rating, Morningglory [16, 26] | Plant response rating, Morningglory [16, 30] | Plant response rating, Velvetleaf [17, 29] | Plant response rating, Velvetleaf [17, 26] | Plant response rating, Rice (rice (Oryza saliva); [25]) | Plant response rating, Rice (rice (Oryza saliva); [29]) | Plant response rating, Rice (rice (Oryza saliva); [26]) | Plant response rating, Rice (rice (Oryza saliva); [30]) | Plant response rating, Barnyardgrass [20, 29] | Plant response rating, Cocklebur [21, 25] | Plant response rating, Cocklebur [21, 29] | Plant response rating, Cocklebur [21, 26] | Plant response rating, Cocklebur [21, 30]
60: Plant response rating, Pigweed [7, 28] | Plant response rating, Cocklebur [10, 27] | Plant response rating, Velvetleaf [17, 30]
20: Plant response rating, Foxtail, Giant [2, 28] | Plant response rating, Surinam grass [8, 28] | Plant response rating, Foxtail, Giant [14, 29] | Plant response rating, Surinam grass [19, 29]
50: Plant response rating, Pigweed [7, 27] | Plant response rating, Foxtail, Giant [14, 25] | Plant response rating, Surinam grass [19, 26] | Plant response rating, Barnyardgrass [20, 30]
90: Plant response rating, Morningglory [5, 27] | Plant response rating, Pigweed [7, 24] | Plant response rating, Cocklebur [10, 24] | Plant response rating, Lambsquarters [11, 28] | Plant response rating, Lambsquarters [11, 24] | Plant response rating, Surinam grass [19, 30] | Plant response rating, Sunflower (Sunflower)
80: Plant response rating, Velvetleaf [6, 28] | Plant response rating, Velvetleaf [6, 24] | Plant response rating, Lambsquarters [11, 27]
30: Plant response rating, Barnyardgrass [20, 26]
70: Plant response rating, Cocklebur [10, 28] | Plant response rating, Velvetleaf [17, 25]
40: Plant response rating, Cocklebur [10, 23]
